Here are results for nine compounds from patent US20220370440A1 (Lead Discovery Center GmbH, priority 2018, published 2022).

In data set [1] the target is EGFR Exon 20 INSNPH Ba/F3 (Homo sapiens, UniProt P00533, DUP771-773, cells depend on it). The data set can be described thus: EGFR Exon 20 INSNPH Ba/F3 CellTiter-Glo. In kind it is cell-based. Conditions: CellTiter-Glo, 72 h, read-out: EGFR Exon 20 INSNPH Ba/F3 CTG IC50. In short, it runs like this:
(§1)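 IC50 values come from dose–response fits of CellTiter-Glo luminescence in Ba/F3 cells treated with compound for 72 h at 37 °C, 5% CO2. Vehicle (DMSO) and 10 μM staurosporine wells set the assay window, with Z′ ≥0.5 required.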

Data set [2] has as its target T1, HER2 INS YVMA (Homo sapiens, UniProt P04626, INS775YVMA).
T1 construct: purchased DPF
The data set can be described thus: Lance Kinase Activity Assay, HER2 INS YVMA (Her2 Exon 20 INSYVMA Lance). As to conditions: biochemical Lance assay. In kind it is biochemical. Summed up:
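IC50 was fitted to sigmoidal curves of TR-FRET signal (665 and 615 nm emission after 340 nm excitation) from an Eu anti-phospho antibody binding the phosphorylated ULight peptide. The ATP-started reaction ran 1 h at RT and was then quenched with 10 mM EDTA plus antibody for a further 1 h. Compounds were tested as 8-point, 3-fold dilutions.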

The nature of data set [3]: Metabolic stability in mouse liver microsomes without cofactor NADPH. In kind it is in vitro ADME. Conditions: 3 μM test compound, mouse liver microsomes, without NADPH, 50 min, 37° C., LC-MS/MS. In short, it runs like this:
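Cofactor-free incubation: no NADPH added to mouse liver microsomes, with compound at 3 μM and 37° C. Remaining parent was quantified by LC-MS/MS at time points up to 50 minutes to track depletion.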
(In general: Liver microsomes are vesicles of endoplasmic reticulum, rich in cytochrome P450 enzymes.)

In data set [4] the target is EGFR wt (Homo sapiens, UniProt P00533). The data set can be described thus: EGFR wt Lance assay. In kind it is biochemical. The procedure: (§2) Inhibition is indicated as […] [nM] (“−”=not measured). Compounds having an activity designated as “A” provided an IC50≤100 nM; compounds having an activity designated as “B” provided an 100 nM<IC50≤500 nM; compounds having an activity designated as “C” provided an 500 nM<IC50≤1000 nM; compounds having an activity designated as “D” provided an 1000 nM<IC50≤100000 nM; and compounds having an activity designated as “E” provided an IC50>10000 nM.

Data set [5] concerns the target EGFR T790ML858R (Homo sapiens, UniProt P00533, L858R/T790M). The data set can be described thus: EGFR T790ML858R Lance assay. In kind it is biochemical. The procedure:
as §2

The target of data set [6] is Her2 Exon 20 INSYVMA Ba/F3 (Homo sapiens, UniProt P04626, DUP772-775, cells depend on it). The data set can be described thus: Her2 Exon 20 INSYVMA Ba/F3 CellTiter-Glo. In kind it is cell-based. As to conditions: CellTiter-Glo, 72 h, read-out: Her2 Exon 20 INSYVMA Ba/F3 CTG IC50. Summed up:
as §1
(ATP-based viability assays read luminescence as a measure of living cells.)

For data set [7], the system named is H1781. As to the kind of experiment: H1781 CellTiter-Glo. Conditions: NCI-H1781; 72 h compound incubation; read-out: H1781 CTG IC50. In kind it is cell-based. How it is done:
2. Measurement of Cellular Activity
The CellTiter-Glo Luminescent Cell Viability Assay (Promega) is a homogeneous method of determining the number of viable cells in culture. It is based on quantification of ATP, indicating the presence of metabolically active cells. Cells are seeded on day 1 at cell numbers that assure assay linearity and optimal signal intensity. After incubation for 24 h in humidified chambers at 37° C. and 5% CO2, compounds in DMSO are added at different concentrations. Cells are further incubated for 72 h at 37° C. and 5% CO2. Cells treated with the compound vehicle DMSO are used as positive controls and cells treated with 10 μM Staurosporine serve as negative controls. At day 5 the CellTiter Glo Reagent is prepared according to the instructions of the kit (Promega Inc.): Reagent is mixed 1:1 with cell culture medium. Thereon, mixture and assay plates are equilibrated at room temperature for 20 min. Equal volumes of the reagent-medium-mixture is added to the volume of culture medium present in each well. The plates are mixed at ˜200 rpm for 2 minutes on an orbital shaker. The microplates are then incubated at room temperature for 10 minutes for stabilization of the luminescent signal. Following incubation the luminescence is recorded on a Victor microplate reader (Perkin Elmer) using a 200 ms integration time. The data is then analyzed with Excel using the XLFIT Plugin (dose response Fit 205) for IC50-determination. As quality control the Z′-factor is calculated from 16 positive and negative control values. Only assay results showing a Z′-factor ≥0.5 are used for further analysis.
as §2

Data set [8] relates to A431. The data set can be described thus: A431 CellTiter-Glo. In kind it is cell-based. As to conditions: Homo sapiens, A-431; 72 h compound incubation; read-out: A431 CTG IC50. Summed up:
(§3)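 In this viability format, compound-treated cells sit 72 h at 37° C. before ATP content is quantified by luminescence, and IC50 is taken from the fitted dose-response curve.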

The subject of data set [9] is H1975. As to the kind of experiment: H1975 CellTiter-Glo. In kind it is cell-based. Conditions: Homo sapiens, NCI-H1975; 72 h compound incubation; read-out: H1975 CTG IC50. Summed up:
as §3

EGFR T790ML858R, sequence (P00533 25-1210 T790M/L858R): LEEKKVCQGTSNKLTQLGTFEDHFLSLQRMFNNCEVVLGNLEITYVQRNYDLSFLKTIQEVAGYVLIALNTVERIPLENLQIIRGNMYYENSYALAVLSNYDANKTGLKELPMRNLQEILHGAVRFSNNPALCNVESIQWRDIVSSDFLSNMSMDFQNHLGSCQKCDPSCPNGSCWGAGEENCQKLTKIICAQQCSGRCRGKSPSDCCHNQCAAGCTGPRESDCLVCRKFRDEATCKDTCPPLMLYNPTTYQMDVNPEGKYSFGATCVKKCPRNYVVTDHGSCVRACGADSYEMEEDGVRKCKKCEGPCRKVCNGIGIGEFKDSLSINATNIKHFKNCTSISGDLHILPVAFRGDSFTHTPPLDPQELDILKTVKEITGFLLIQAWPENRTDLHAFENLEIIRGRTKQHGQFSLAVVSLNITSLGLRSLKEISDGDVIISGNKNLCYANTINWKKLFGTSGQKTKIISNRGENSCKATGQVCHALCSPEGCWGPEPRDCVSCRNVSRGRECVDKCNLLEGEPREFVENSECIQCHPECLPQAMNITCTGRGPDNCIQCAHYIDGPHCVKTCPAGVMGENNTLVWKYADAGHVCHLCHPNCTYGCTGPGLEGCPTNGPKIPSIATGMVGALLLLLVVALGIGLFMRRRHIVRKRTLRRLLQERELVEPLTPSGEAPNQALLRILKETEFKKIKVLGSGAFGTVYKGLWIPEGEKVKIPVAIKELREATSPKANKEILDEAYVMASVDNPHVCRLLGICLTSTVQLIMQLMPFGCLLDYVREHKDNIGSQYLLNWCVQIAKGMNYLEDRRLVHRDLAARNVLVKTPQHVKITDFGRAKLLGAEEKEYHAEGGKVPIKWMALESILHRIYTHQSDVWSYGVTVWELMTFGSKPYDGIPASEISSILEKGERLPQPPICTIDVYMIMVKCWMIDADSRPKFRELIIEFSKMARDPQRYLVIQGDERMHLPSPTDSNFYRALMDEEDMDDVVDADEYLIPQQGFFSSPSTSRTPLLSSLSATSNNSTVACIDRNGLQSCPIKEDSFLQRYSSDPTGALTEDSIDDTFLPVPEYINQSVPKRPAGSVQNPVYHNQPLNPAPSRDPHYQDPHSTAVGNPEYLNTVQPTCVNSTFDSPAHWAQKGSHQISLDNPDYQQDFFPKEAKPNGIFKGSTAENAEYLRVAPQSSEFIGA
EGFR Exon 20 INSNPH Ba/F3, sequence (P00533 with tags, fused parts or gaps DUP771-773): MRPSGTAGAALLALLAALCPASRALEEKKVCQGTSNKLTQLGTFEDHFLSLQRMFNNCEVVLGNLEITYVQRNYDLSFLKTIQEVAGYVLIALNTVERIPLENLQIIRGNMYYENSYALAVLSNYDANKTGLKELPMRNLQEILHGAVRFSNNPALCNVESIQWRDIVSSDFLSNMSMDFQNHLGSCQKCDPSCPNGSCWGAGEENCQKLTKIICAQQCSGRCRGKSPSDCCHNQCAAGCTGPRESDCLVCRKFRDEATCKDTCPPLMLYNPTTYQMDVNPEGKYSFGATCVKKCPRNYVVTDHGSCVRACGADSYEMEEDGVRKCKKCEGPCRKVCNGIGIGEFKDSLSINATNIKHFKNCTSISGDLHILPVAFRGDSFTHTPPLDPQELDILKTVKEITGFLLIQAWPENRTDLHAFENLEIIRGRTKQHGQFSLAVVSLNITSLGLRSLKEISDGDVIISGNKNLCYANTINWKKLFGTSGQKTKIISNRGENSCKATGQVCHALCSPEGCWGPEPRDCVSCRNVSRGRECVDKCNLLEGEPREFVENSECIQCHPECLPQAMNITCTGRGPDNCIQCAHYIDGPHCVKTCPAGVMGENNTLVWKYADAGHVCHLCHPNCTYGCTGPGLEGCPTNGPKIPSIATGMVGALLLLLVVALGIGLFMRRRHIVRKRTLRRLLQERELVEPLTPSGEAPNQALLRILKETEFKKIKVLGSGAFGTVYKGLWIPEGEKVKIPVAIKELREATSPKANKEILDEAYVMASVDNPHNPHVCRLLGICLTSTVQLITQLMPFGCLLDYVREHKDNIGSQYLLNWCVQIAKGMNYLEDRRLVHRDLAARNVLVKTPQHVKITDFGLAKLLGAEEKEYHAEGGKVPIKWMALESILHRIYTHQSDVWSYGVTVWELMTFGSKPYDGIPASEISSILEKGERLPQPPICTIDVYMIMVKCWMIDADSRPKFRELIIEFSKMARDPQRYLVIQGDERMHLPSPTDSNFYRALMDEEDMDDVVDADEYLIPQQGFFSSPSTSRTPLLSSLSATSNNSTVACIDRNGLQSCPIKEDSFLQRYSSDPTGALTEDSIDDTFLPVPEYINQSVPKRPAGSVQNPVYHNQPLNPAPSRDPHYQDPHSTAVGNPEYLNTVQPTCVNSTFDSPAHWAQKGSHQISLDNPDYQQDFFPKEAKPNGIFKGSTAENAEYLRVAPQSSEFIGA
Her2 Exon 20 INSYVMA Ba/F3, sequence (P04626 with tags, fused parts or gaps DUP772-775): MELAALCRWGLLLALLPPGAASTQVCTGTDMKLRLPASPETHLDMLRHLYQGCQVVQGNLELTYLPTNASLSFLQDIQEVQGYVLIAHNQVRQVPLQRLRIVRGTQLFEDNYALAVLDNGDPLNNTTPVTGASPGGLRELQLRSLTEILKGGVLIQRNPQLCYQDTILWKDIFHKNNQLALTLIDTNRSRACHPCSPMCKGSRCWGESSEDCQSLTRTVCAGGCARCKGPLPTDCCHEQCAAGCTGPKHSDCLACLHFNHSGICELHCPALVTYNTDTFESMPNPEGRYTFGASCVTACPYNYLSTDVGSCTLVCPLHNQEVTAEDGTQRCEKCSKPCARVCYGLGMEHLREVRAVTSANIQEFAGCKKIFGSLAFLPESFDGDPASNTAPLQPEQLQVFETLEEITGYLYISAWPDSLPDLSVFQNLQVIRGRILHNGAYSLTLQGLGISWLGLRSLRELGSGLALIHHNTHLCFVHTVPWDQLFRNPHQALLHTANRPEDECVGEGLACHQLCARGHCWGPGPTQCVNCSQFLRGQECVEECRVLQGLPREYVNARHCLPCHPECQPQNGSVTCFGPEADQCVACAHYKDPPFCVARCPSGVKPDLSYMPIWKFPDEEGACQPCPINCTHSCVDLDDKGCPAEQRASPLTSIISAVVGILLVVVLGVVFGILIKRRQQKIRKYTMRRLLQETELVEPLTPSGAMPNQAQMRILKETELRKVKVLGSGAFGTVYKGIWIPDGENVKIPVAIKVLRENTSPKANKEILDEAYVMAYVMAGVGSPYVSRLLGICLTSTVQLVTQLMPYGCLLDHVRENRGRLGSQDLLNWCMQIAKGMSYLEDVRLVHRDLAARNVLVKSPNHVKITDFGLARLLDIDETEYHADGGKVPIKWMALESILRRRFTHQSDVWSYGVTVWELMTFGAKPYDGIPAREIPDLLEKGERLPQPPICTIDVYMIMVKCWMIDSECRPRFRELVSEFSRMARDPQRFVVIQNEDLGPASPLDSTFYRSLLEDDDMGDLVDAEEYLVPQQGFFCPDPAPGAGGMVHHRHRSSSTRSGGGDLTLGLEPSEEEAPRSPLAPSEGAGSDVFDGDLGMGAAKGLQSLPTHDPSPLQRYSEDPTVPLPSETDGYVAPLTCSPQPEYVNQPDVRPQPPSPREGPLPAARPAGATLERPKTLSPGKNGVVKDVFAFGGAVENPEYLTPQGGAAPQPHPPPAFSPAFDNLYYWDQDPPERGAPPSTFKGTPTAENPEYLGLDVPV
T1 sequence (P04626 with tags, fused parts or gaps INS775YVMA): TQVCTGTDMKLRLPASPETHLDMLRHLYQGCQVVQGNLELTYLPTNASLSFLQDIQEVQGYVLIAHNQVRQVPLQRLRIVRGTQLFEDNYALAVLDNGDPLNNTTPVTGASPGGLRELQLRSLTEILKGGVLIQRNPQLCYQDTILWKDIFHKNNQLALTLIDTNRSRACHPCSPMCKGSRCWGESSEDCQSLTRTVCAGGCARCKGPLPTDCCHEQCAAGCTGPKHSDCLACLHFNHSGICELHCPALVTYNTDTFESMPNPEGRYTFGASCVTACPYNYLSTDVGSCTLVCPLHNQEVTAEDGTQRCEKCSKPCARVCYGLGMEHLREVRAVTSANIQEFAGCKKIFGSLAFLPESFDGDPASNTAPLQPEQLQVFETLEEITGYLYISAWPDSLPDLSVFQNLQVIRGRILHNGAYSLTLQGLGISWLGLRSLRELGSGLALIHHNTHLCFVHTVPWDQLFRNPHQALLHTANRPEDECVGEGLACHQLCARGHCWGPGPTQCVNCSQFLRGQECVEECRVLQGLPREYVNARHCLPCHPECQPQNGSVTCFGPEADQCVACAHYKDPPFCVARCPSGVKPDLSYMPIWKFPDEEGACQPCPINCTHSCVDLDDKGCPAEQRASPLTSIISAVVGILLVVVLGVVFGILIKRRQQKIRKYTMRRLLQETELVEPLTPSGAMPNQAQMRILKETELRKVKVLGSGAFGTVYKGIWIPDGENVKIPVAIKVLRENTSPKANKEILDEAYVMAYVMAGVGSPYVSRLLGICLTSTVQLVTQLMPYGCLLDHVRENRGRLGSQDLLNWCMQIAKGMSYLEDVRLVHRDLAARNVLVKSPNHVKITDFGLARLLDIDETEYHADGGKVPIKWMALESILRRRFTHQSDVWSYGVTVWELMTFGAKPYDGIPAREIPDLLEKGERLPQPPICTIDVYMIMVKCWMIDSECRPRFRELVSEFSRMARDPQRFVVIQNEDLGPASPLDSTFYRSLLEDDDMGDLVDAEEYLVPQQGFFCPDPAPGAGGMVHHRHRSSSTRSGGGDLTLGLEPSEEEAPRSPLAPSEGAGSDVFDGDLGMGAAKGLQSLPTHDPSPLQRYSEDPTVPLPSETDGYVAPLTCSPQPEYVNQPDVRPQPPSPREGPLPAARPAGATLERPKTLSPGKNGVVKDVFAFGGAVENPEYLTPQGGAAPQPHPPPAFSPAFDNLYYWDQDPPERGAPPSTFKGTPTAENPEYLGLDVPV

As for `C=CC(=O)N1CCOc2ccc(-c3c(-c4ccc(N5CCN(C)CC5)cc4)[nH]c4nccc(Cl)c34)cc21` [Example 83, 1-(6-(4-chloro-2-(4-(4-methylpiperazin-1-yl)phenyl)-1H-pyrrolo[2,3-b]pyridin-3-yl)-2H-benzo[b][1,4]oxazin-4(3H)-yl)prop-2-en-1-one 2,2,2-trifluoroacetate], the GI50 in [1] and in data set [6] was 100 to 500 nM each time. Moreover, the IC50 is at most 100 nM in data set [2]; at most 100 nM in data set [4]; at most 100 nM in data set [5]; 1000 to 100000 nM in data set [7]; 1000 to 100000 nM in data set [8]; 100 to 500 nM in [9]. Besides, the “Stability in presence of mouse liver microsomes without cofactor NADPH [% remaining after 50 min]” value in data set [3] is reported as over 99 % remaining after 50 min.

With `C=CC(=O)Nc1cc(-c2c(-c3ccc(CN4CCN(C)CC4)cc3)[nH]c3nccc(OC)c23)ccc1C` [Example 77, N-(5-(4-methoxy-2-(4-((4-methylpiperazin-1-yl)methyl)phenyl)-1H-pyrrolo[2,3-b]pyridin-3-yl)-2-methylphenyl)acrylamide], the GI50 in data set [1] and in data set [6] was 100 to 500 nM in each case. For the same compound, the IC50 in [2] was at most 100 nM; in data set [4], at most 100 nM; in [5], at most 100 nM; in [7], 100 to 500 nM; in data set [8], 100 to 500 nM; in data set [9] it was at most 100 nM. Moreover, in data set [3], the “Stability in presence of mouse liver microsomes without cofactor NADPH [% remaining after 50 min]” value was over 99 % remaining after 50 min.

For `C=CC(=O)Nc1cc(-c2c(-c3ccc(C4CCN(C)CC4)cc3)[nH]c3nccc(OC)c23)ccc1C` [Example 73, N-(5-(4-methoxy-2-(4-(1-methylpiperidin-4-yl)phenyl)-1H-pyrrolo[2,3-b]pyridin-3-yl)-2-methylphenyl)acrylamide], the GI50 in data set [1] and in data set [6] was at most 100 nM each time. Moreover, the half-maximal inhibitory concentration (IC50) was at most 100 nM in [2]; at most 100 nM in [4]; at most 100 nM in data set [5]; 100 to 500 nM in data set [7]; 100 to 500 nM in data set [8]; at most 100 nM in data set [9]. Moreover, the “Stability in presence of mouse liver microsomes without cofactor NADPH [% remaining after 50 min]” value in [3] turned out to be 99 % remaining after 50 min.

As to `C=CC(=O)Nc1cc(-c2c(-c3ccc(OCCCN4CCN(CC)CC4)cc3)[nH]c3nccc(Cl)c23)ccc1C` [Example 23, N-(5-(4-chloro-2-(4-(3-(4-ethylpiperazin-1-yl)propoxy)phenyl)-1H-pyrrolo[2,3-b]pyridin-3-yl)-2-methylphenyl)acrylamide], the GI50 in [1] and in [6] was 100 to 500 nM in each case. For the same compound, the IC50 in data set [2] was at most 100 nM; in data set [4], at most 100 nM; in [5], at most 100 nM; in [7] it was 100 to 500 nM; in data set [8], 100 to 500 nM; in data set [9], at most 100 nM. Further, the “Stability in presence of mouse liver microsomes without cofactor NADPH [% remaining after 50 min]” value in data set [3] is over 99 % remaining after 50 min.

On to `C=CC(=O)Nc1cc(-c2c(-c3ccc(N4CCN(C(C)=O)CC4)cc3)[nH]c3nccc(Cl)c23)ccc1C` [Example 8, N-(5-(2-(4-(4-acetylpiperazin-1-yl)phenyl)-4-chloro-1H-pyrrolo[2,3-b]pyridin-3-yl)-2-methylphenyl)acrylamide], for which the GI50 in [1] and in data set [6] was 100 to 500 nM throughout. Moreover, the IC50 is at most 100 nM in data set [2]; at most 100 nM in [4]; at most 100 nM in [5]; 100 to 500 nM in data set [7]; 100 to 500 nM in data set [8]; at most 100 nM in data set [9]. Moreover, the “Stability in presence of mouse liver microsomes without cofactor NADPH [% remaining after 50 min]” value in data set [3] is given as over 99 % remaining after 50 min.

As for `C=CC(=O)Nc1cc(-c2c(-c3ccc(C4CCN(C)CC4)cc3)[nH]c3ncccc23)ccc1C` [Example 79, N-(2-methyl-5-(2-(4-(1-methylpiperidin-4-yl)phenyl)-1H-pyrrolo[2,3-b]pyridin-3-yl)phenyl)acrylamide], the GI50 in data set [1] and in data set [6] was 100 to 500 nM throughout. In addition, the IC50 is at most 100 nM in data set [2]; at most 100 nM in data set [4]; at most 100 nM in [5]; 500 to 1000 nM in data set [7]; 100 to 500 nM in [8]; at most 100 nM in data set [9]. Also, in [3], the “Stability in presence of mouse liver microsomes without cofactor NADPH [% remaining after 50 min]” value is given as over 99 % remaining after 50 min.

Turning to `C=CC(=O)Nc1cc(-c2c(-c3cccc(N4CCN(C)CC4)c3)[nH]c3nccc(Cl)c23)ccc1C` [Example 17, N-(5-(4-chloro-2-(3-(4-methylpiperazin-1-yl)phenyl)-1H-pyrrolo[2,3-b]pyridin-3-yl)-2-methylphenyl)acrylamide], the GI50 in data set [1] and in data set [6] was 100 to 500 nM throughout. Also, the IC50 in [2] is at most 100 nM; in [4], at most 100 nM; in [5], at most 100 nM; in data set [7], 100 to 500 nM; in [8] it was 100 to 500 nM; in data set [9], at most 100 nM. Also, in data set [3], the “Stability in presence of mouse liver microsomes without cofactor NADPH [% remaining after 50 min]” value is 90 % remaining after 50 min.

As to `C=CC(=O)Nc1cc(-c2c(-c3ccc(N4CCNCC4)cc3)[nH]c3nccc(Cl)c23)ccc1C` [Example 96, N-(5-(4-chloro-2-(4-(piperazin-1-yl)phenyl)-1H-pyrrolo[2,3-b]pyridin-3-yl)-2-methylphenyl)acrylamide 2,2,2-trifluoroacetate], the GI50 in [1] and in data set [6] was 100 to 500 nM in each case. Moreover, the 50% inhibitory concentration (IC50) in data set [2] is at most 100 nM; in data set [4], at most 100 nM; in [5] it was at most 100 nM; in [7], 100 to 500 nM; in data set [8], 100 to 500 nM; in data set [9], at most 100 nM. Further, in data set [3], the “Stability in presence of mouse liver microsomes without cofactor NADPH [% remaining after 50 min]” value stood at 92 % remaining after 50 min.

As to `C=CC(=O)Nc1cc(-c2c(-c3ccc(N4CCN(C)CC4)cc3)[nH]c3nccc(Cl)c23)ccc1C` [Example 2, N-(5-(4-chloro-2-(4-(4-methylpiperazin-1-yl)phenyl)-1H-pyrrolo[2,3-b]pyridin-3-yl)-2-methylphenyl)acrylamide], the GI50 in data set [1] and in data set [6] was at most 100 nM throughout. In addition, the IC50 in [2] was at most 100 nM; in [4], at most 100 nM; in data set [5], at most 100 nM; in data set [7], 100 to 500 nM; in [8], 100 to 500 nM; in data set [9], at most 100 nM. In addition, the “Stability in presence of mouse liver microsomes without cofactor NADPH [% remaining after 50 min]” value in data set [3] was over 99 % remaining after 50 min.

As a reminder, the IC50 is the concentration at which inhibition is half-maximal.
